This note sets out measurements from patent publication US12344610B2, “APOL1 inhibitors and methods of use” (Maze Therapeutics, Inc., priority 2022, dated 2025).

This assay concerns Trypanosoma brucei Lister 427 VSG221 with APOL1 G0 recombinant protein. Put plainly: APOL1 G0 trypanosome cell rescue assay (Example B5). The class given is cell-based. The following applies: Trypanosoma brucei, 20 h, read-out: APOL1 G0 Trypanosome Rescue EC50, Trypanosoma brucei Lister 427 VSG221 with APOL1 G0 recombinant protein, 20 hours, CellTiter-Glo; geometric mean of at least 2 assay runs; † = single assay run. A digest of the protocol: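 Recombinant mature APOL1 (residues 28-398, His-tag removed, E. coli-expressed, refolded from inclusion bodies, DDM buffer) at […] added with 250 trypanosomes/well in modified HMI-9 media. Duplicate 11-point 2-fold compound series, 0.4% DMSO; 20 h at 37° C, 5% CO2, then CellTiter-Glo luminescence for viability.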

The EC50 is the concentration needed to bring the measured effect to its halfway point. As to `CN1C(=O)Cc2cc(OCCN3CCC4(CC3)C(=O)Nc3ccc(Cl)cc34)ccc21` [Compound 65, 5-chloro-1′-{2-[(1-methyl-2-oxo-2,3-dihydro-1H-indol-5-yl)oxy]ethyl}-1,2-dihydrospiro[indole-3,4′-piperidin]-2-one], the EC50 turned out to be 318 nM. As for `CC[C@]1(O)C[C@@H](N2C(=O)CCc3cc(OCCN4CCC5(CC4)C(=O)Nc4ccc(Cl)cc45)cnc32)C1` (single isomer, unassigned) [Compound 321, 5-chloro-1′-[2-({7-oxo-8-[(cis)-3-ethyl-3-hydroxycyclobutyl]-5,6,7,8-tetrahydro-1,8-naphthyridin-3-yl}oxy)ethyl]-1,2-dihydrospiro[indole-3,4′-piperidin]-2-one], the figure is 39.6 nM; as for `C[C@]1(O)C[C@@H](n2nnc3cc(OCCN4CCC5(CC4)C(=O)Nc4ccc(Cl)cc45)cnc32)C1` [Compound 440, 5-chloro-1′-[2-({3-[(cis)-3-hydroxy-3-methylcyclobutyl]-3H-[1,2,3]triazolo[4,5-b]pyridin-6-yl}oxy)ethyl]-1,2-dihydrospiro[indole-3,4′-piperidin]-2-one], 160 nM; as for `C[C@]1(O)C[C@@H](n2ccc3cc(OCCN4CCC5(CC4)C(=O)Nc4ccc(Cl)cc45)cnc32)C1` [Compound 349, 5-chloro-1′-[2-({1-[(cis)-3-hydroxy-3-methylcyclobutyl]-1H-pyrrolo[2,3-b]pyridin-5-yl}oxy)ethyl]-1,2-dihydrospiro[indole-3,4′-piperidin]-2-one], 64.6 nM. As for `CN(c1ccc(OCCN2CCC3(CC2)C(=O)Nc2ccc(C#N)cc23)cc1)S(C)(=O)=O` [Compound 75, N-[4-(2-{5-cyano-2-oxo-1,2-dihydrospiro[indole-3,4′-piperidin]-1′-yl}ethoxy)phenyl]-N-methylmethanesulfonamide], the figure is 383 nM; as for `NC(=O)c1ccc(OCCN2CCC3(CC2)C(=O)Nc2ccc(Cl)cc23)cc1F` [Compound 46, 4-(2-{5-chloro-2-oxo-1,2-dihydrospiro[indole-3,4′-piperidin]-1′-yl}ethoxy)-2-fluorobenzamide], 156 nM; as for `CC(=O)N1Cc2ccc(OCCN3CCC4(CC3)C(=O)Nc3ccc(Cl)cc34)cc2C1` [Compound 57, 1′-{2-[(2-acetyl-2,3-dihydro-1H-isoindol-5-yl)oxy]ethyl}-5-chloro-1,2-dihydrospiro[indole-3,4′-piperidin]-2-one], 673 nM.

With `CS(=O)(=O)c1ccc(OCCN2CCC3(CC2)C(=O)Nc2ccc(Cl)cc23)cc1F` [Compound 63, 5-chloro-1′-[2-(3-fluoro-4-methanesulfonylphenoxy)ethyl]-1,2-dihydrospiro[indole-3,4′-piperidin]-2-one], the EC50 was determined as 118 nM. To `Cn1ncc2cc(OCCN3CCC4(CC3)C(=O)Nc3ccccc34)ccc21` [Compound 70, 1′-{2-[(1-methyl-1H-indazol-5-yl)oxy]ethyl}-1,2-dihydrospiro[indole-3,4′-piperidin]-2-one] belongs > 4000 nM; to `O=C1CCc2cc(OCCN3CCC4(CC3)C(=O)Nc3ccc(Cl)cc34)cnc2N1[C@H]1C[C@@H](CO)C1` (single isomer, unassigned) [Compound 319, 5-chloro-1′-[2-({7-oxo-8-[(cis)-3-(hydroxymethyl)cyclobutyl]-5,6,7,8-tetrahydro-1,8-naphthyridin-3-yl}oxy)ethyl]-1,2-dihydrospiro[indole-3,4′-piperidin]-2-one], 69.7 nM; to `C[C@]1(O)C[C@@H](N2C(=O)CCc3cc(OCCN4CCC5(CC4)C(=O)Nc4ccc(OC(F)F)cc45)cnc32)C1` [Cmpd 325, 5-(difluoromethoxy)-1′-[2-({7-oxo-8-[(cis)-3-hydroxy-3-methylcyclobutyl]-5,6,7,8-tetrahydro-1,8-naphthyridin-3-yl}oxy)ethyl]-1,2-dihydrospiro[indole-3,4′-piperidin]-2-one], 213 nM.

For `CC(=O)N1CCCc2cc(OCCN3CCC4(CC3)C(=O)N(C)c3ccccc34)ccc21` [Compound 36, 1′-{2-[(1-acetyl-1,2,3,4-tetrahydroquinolin-6-yl)oxy]ethyl}-1-methyl-1,2-dihydrospiro[indole-3,4′-piperidin]-2-one], the EC50 was > 4000 nM.

On to `NC(=O)c1ccc(OCCN2CCC3(CC2)C(=O)Nc2ccc(Cl)cc23)cc1` [Compound 45, 4-(2-{5-chloro-2-oxo-1,2-dihydrospiro[indole-3,4′-piperidin]-1′-yl}ethoxy)benzamide], for which the EC50 came out at 476 nM.

For the compound `CS(=O)(=O)c1c(F)cc(OCCN2CCC3(CC2)C(=O)Nc2ccccc23)cc1F` [Compound 42, 1′-[2-(3,5-difluoro-4-methanesulfonylphenoxy)ethyl]-1,2-dihydrospiro[indole-3,4′-piperidin]-2-one], the EC50 came to 1260 nM. As for `CS(=O)(=O)c1ccc(OCCN2CCC3(CC2)C(=O)Nc2ccc(Cl)cc23)cc1C#N` [Compound 50, 5-(2-{5-chloro-2-oxo-1,2-dihydrospiro[indole-3,4′-piperidin]-1′-yl}ethoxy)-2-methanesulfonylbenzonitrile], the figure is 30 nM. For `CNC(=O)N1CCCc2cc(OCCN3CCC4(CC3)C(=O)Nc3ccc(Cl)cc34)ccc21` [Compound 60, 6-(2-{5-chloro-2-oxo-1,2-dihydrospiro[indole-3,4′-piperidin]-1′-yl}ethoxy)-N-methyl-1,2,3,4-tetrahydroquinoline-1-carboxamide], the EC50 was 189 nM. To `CS(=O)(=O)c1ccc(OCCN2CCC3(CC2)C(=O)Nc2ccc(C#N)cc23)cc1` [Compound 71, 1′-[2-(4-methanesulfonylphenoxy)ethyl]-2-oxo-1,2-dihydrospiro[indole-3,4′-piperidine]-5-carbonitrile] belongs 814 nM. As for `CS(=O)(=O)N1CCCc2cc(OCCN3CCC4(CC3)C(=O)Nc3ccc(Cl)cc34)ccc21` [Compound 53, 5-chloro-1′-{2-[(1-methanesulfonyl-1,2,3,4-tetrahydroquinolin-6-yl)oxy]ethyl}-1,2-dihydrospiro[indole-3,4′-piperidin]-2-one], the figure is 156 nM; as for `O=C1Nc2ccccc2C12CCN(CCOc1ccc(S(=O)(=O)C(F)F)cc1)CC2` [Compound 44, 1′-[2-(4-difluoromethanesulfonylphenoxy)ethyl]-1,2-dihydrospiro[indole-3,4′-piperidin]-2-one], 331 nM. In the case of `C[C@]1(O)C[C@@H](n2cnc3cc(OCCN4CCC5(CC4)C(=O)Nc4ccc(Cl)cc45)cc(C#N)c32)C1` [Compound 439, 5-(2-{5-chloro-2-oxo-1,2-dihydrospiro[indole-3,4′-piperidin]-1′-yl}ethoxy)-1-[(cis)-3-hydroxy-3-methylcyclobutyl]-1H-1,3-benzodiazole-7-carbonitrile], the EC50 is 50.5 nM.

With `CS(=O)(=O)C1(c2ncc(OCCN3CCC4(CC3)C(=O)Nc3ccc(Cl)cc34)cn2)CC1` [Compound 4, 5-chloro-1′-(2-{[2-(1-methanesulfonylcyclopropyl)pyrimidin-5-yl]oxy}ethyl)-1,2-dihydrospiro[indole-3,4′-piperidin]-2-one], the EC50 was 116 nM. As for `Cn1ncc2cc(OCCN3CCC4(CC3)C(=O)Nc3ccc(Cl)cc34)ccc21` [Compound 68, 5-chloro-1′-{2-[(1-methyl-1H-indazol-5-yl)oxy]ethyl}-1,2-dihydrospiro[indole-3,4′-piperidin]-2-one], the figure is 358 nM.

Consider `C[C@]1(O)C[C@@H](n2ncc3cc(OCCN4CCC5(CC4)C(=O)Nc4ccc(Cl)cc45)cnc32)C1` (single isomer, unassigned) [Compound 357, 5-chloro-1′-[2-({1-[(cis)-3-hydroxy-3-methylcyclobutyl]-1H-pyrazolo[3,4-b]pyridin-5-yl}oxy)ethyl]-1,2-dihydrospiro[indole-3,4′-piperidin]-2-one], for which the EC50 worked out at 61.2 nM. For the compound `[2H]C([2H])(Oc1cnc2c(c1)CCC(=O)N2[C@H]1C[C@@](C)(O)C1)C([2H])([2H])N1CCC2(CC1)C(=O)Nc1ccc(Cl)cc12` [Compound 426, 5-chloro-1′-[2-({7-oxo-8-[(cis)-3-hydroxy-3-methylcyclobutyl]-5,6,7,8-tetrahydro-1,8-naphthyridin-3-yl}oxy)(1,1,2,2-^2H4)ethyl]-1,2-dihydrospiro[indole-3,4′-piperidin]-2-one], the EC50 worked out at 71 nM. To `[2H]C([2H])([2H])[C@]1(O)C[C@@H](N2C(=O)CCc3cc(OCCN4CCC5(CC4)C(=O)Nc4ccc(Cl)cc45)cnc32)C1` [Compound 461, 5-chloro-1′-[2-({7-oxo-8-[(cis)-3-hydroxy-3-(^2H3)methylcyclobutyl]-5,6,7,8-tetrahydro-1,8-naphthyridin-3-yl}oxy)ethyl]-1,2-dihydrospiro[indole-3,4′-piperidin]-2-one] belongs 69.2 nM; to `Cc1ccc2c(c1)C1(CCN(CCOc3ccc(S(C)(=O)=O)cc3)CC1)C(=O)N2` [Compound 66, 1′-[2-(4-methanesulfonylphenoxy)ethyl]-5-methyl-1,2-dihydrospiro[indole-3,4′-piperidin]-2-one], 246 nM; to `O=C1CCc2cc(OCCN3CCC4(CC3)C(=O)Nc3ccc(Cl)cc34)cnc2N1C1CC(CO)C1` (stereo not shown) [Compound 326, 5-chloro-1′-[2-({8-[3-(hydroxymethyl)cyclobutyl]-7-oxo-5,6,7,8-tetrahydro-1,8-naphthyridin-3-yl}oxy)ethyl]-1,2-dihydrospiro[indole-3,4′-piperidin]-2-one], 88.6 nM. As for `C[C@]1(O)C[C@@H](n2ccc3cc(OCCN4CCC5(CC4)C(=O)Nc4ccc(C#N)cc45)cnc32)C1` [Compound 410, 2-oxo-1′-[2-({1-[(cis)-3-hydroxy-3-methylcyclobutyl]-1H-pyrrolo[2,3-b]pyridin-5-yl}oxy)ethyl]-1,2-dihydrospiro[indole-3,4′-piperidine]-5-carbonitrile], the figure is 206 nM.
